Experimental findings from patent US11739098B2 (BRISTOL-MYERS SQUIBB COMPANY, priority 2017, dated 2023) are described below.

Holding throughout (assay type): cell-based
For test [1], the target named is T1, human TLR8 (Homo sapiens, UniProt Q9NR97).
T1 construct: host or cells: HEK-Blue cells (HEK293-derived reporter line)
T1 sequence (Q9NR97 27-1041): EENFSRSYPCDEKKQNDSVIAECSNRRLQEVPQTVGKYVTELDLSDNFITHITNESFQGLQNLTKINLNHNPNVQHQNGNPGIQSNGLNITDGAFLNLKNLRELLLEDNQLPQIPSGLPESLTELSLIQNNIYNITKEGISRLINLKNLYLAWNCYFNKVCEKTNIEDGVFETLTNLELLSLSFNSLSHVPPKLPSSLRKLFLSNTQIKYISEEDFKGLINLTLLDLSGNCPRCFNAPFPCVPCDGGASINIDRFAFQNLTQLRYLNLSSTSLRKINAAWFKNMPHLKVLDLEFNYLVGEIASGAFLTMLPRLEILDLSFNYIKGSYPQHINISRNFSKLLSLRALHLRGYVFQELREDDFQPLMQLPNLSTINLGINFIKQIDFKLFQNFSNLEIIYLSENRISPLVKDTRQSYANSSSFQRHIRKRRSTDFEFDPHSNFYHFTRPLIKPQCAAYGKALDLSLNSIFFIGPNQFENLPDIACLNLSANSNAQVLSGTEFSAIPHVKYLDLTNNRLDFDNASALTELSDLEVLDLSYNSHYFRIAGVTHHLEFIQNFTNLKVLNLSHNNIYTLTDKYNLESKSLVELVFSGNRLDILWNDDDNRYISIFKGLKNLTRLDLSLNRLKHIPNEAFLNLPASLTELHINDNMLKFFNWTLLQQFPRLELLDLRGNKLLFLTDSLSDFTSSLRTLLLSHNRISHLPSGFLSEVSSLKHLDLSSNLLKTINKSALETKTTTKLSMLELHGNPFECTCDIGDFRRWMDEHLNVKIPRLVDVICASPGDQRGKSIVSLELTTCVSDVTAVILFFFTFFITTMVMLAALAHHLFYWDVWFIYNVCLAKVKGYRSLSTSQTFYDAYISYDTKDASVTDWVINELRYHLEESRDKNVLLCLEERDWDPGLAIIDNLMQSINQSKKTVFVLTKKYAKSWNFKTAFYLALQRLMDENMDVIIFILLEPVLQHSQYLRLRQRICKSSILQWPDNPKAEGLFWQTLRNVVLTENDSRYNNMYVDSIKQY
In words: TLR8 inhibition reporter assay (HEK-Blue cells, SEAP reporter, R848 stimulation). Conditions: HEK-Blue cells overexpressing human TLR8, SEAP reporter, R848 15.9 μM. The procedure, abridged:
(§1)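 HEK-Blue cells overexpressing the receptor, with NF-κB/AP-1-driven SEAP, were pre-treated 30 min at room temperature with compound (0.05 nM–50 μM), then stimulated with gardiquimod 7.5 μM (TLR7), R848 15.9 μM (TLR8) or ODN2006 5 nM (TLR9). SEAP was read after 22 h at 37 °C as percent inhibition.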

Test [2] concerns the target T2, human TLR9 (Homo sapiens, UniProt Q9NR96).
T2 construct: host or cells: HEK-Blue cells (HEK293-derived reporter line)
T2 sequence (Q9NR96 26-1032): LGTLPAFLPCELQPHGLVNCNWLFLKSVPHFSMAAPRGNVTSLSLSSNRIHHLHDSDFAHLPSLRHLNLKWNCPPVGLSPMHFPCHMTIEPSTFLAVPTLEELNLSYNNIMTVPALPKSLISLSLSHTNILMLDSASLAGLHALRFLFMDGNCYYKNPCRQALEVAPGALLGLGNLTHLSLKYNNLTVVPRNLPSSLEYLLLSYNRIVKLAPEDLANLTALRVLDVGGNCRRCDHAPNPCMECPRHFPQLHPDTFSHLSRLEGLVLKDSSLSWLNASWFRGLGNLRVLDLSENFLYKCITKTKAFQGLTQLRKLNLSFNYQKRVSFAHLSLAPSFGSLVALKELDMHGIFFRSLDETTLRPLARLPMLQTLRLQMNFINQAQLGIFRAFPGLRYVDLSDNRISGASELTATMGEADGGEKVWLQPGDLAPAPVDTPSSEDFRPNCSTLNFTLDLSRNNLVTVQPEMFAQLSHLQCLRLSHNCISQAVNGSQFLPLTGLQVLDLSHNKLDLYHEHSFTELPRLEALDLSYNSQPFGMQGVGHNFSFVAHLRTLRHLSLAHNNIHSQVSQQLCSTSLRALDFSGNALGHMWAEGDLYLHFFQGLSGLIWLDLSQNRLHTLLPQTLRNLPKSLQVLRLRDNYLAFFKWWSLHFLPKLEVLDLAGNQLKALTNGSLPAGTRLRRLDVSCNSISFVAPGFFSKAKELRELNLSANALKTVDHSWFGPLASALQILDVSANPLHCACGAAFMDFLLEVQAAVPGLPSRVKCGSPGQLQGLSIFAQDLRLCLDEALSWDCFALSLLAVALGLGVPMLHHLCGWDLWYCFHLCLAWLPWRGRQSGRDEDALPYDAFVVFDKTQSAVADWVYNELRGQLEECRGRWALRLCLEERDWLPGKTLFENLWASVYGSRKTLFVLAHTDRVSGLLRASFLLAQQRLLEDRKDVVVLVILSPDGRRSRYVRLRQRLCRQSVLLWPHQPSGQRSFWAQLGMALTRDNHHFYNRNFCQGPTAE
As to the kind of experiment: TLR9 inhibition reporter assay (HEK-Blue cells, SEAP reporter, ODN2006 stimulation). Conditions: HEK-Blue cells overexpressing human TLR9, SEAP reporter, ODN2006 5 nM. The procedure, abridged: as §1
Background: Reporter assays use an easily measured gene product as a stand-in for the process of interest.

The target of test [3] is T3, human TLR7 (Homo sapiens, UniProt Q9NYK1).
T3 construct: host or cells: HEK-Blue cells (HEK293-derived reporter line)
T3 sequence (Q9NYK1 27-1049): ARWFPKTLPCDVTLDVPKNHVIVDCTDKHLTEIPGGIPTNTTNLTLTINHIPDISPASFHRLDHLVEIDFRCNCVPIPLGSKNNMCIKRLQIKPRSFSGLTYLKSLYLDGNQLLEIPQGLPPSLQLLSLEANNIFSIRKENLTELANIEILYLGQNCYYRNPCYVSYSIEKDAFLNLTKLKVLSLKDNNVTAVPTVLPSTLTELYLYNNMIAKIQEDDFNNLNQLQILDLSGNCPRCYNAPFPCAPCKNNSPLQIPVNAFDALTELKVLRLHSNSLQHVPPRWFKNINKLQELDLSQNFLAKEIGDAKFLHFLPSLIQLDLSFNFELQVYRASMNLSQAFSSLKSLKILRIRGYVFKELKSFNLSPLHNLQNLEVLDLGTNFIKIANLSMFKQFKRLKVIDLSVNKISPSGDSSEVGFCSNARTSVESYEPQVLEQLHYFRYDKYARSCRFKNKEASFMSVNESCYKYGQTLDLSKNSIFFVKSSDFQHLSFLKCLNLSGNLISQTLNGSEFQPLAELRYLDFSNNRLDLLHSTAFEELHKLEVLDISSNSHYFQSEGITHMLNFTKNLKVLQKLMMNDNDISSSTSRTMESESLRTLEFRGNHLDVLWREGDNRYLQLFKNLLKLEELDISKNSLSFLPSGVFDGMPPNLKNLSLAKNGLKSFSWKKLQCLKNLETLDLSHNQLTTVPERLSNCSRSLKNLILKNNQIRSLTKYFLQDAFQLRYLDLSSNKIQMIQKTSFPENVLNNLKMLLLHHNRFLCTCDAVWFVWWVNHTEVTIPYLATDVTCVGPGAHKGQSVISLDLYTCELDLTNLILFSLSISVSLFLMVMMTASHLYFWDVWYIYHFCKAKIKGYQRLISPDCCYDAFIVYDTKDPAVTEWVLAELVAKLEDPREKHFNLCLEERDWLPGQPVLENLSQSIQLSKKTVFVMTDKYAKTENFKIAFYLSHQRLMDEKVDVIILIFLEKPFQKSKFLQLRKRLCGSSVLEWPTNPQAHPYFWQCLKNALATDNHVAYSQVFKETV
As to the kind of experiment: TLR7 inhibition reporter assay (HEK-Blue cells, SEAP reporter, gardiquimod stimulation). Conditions: HEK-Blue cells overexpressing human TLR7, SEAP reporter, gardiquimod 7.5 μM. Summed up:
as §1

`CNC(=O)CN1CCC(c2ccc3[nH]c(-c4cc(OC)n5cc(C)nc5c4)c(C(C)C)c3c2)CC1` [Example 335, 2-(4-(3-isopropyl-2-(5-methoxy-2-methylimidazo[1,2-a]pyridin-7-yl)-1H-indol-5-yl)piperidin-1-yl)-N-methylacetamide]: the concentration for half-maximal inhibition (IC50) in test [1] fell in the range of 1 to 50 µM; in test [2], 1 to 50 µM; in test [3], 0.1 to 1 µM.

As to `CC(C)c1c(-c2ccnc3[nH]ncc23)[nH]c2ccc(C3CCN(C(=O)CN4CCCN(C)CC4)CC3)cc12` [Example 577, 1-(4-(3-isopropyl-2-(1H-pyrazolo[3,4-b]pyridin-4-yl)-1H-indol-5-yl)piperidin-1-yl)-2-(4-methyl-1,4-diazepan-1-yl)ethan-1-one], the IC50 was less than 0.1 µM in test [1], 0.1 to 1 µM in test [2] and less than 0.1 µM in test [3].

Regarding `CNC(=O)CN1CCC(c2ccc3[nH]c(-c4ccn5ccnc5c4)c(CC(F)F)c3c2)CC1` [Example 446, 2-(4-(3-(2,2-difluoroethyl)-2-(imidazo[1,2-a]pyridin-7-yl)-1H-indol-5-yl)piperidin-1-yl)-N-methylacetamide], the IC50 is 0.1 to 1 µM in test [1], 0.1 to 1 µM in test [2] and less than 0.1 µM in test [3].

For the compound `CCc1c(C)c(-c2[nH]c3ccc(C4CCNCC4)cc3c2C(C)C)cn2ccnc12` [Example 272, 8-ethyl-6-(3-isopropyl-5-(piperidin-4-yl)-1H-5 indol-2-yl)-7-methylimidazo[1,2-a]pyridine], the IC50 in test [1] is less than 0.1 µM; in test [2], 0.1 to 1 µM; in test [3], less than 0.1 µM.

Consider `COc1cc(-c2[nH]c3ccc(C4CCN(C5COC5)CC4)cc3c2C(C)C)cn2ccnc12` [Example 722, 6-(3-isopropyl-5-(1-(oxetan-3-yl)piperidin-4-yl)-1H-indol-2-yl)-8-methoxyimidazo[1,2-a]pyridine], for which the IC50 was less than 0.1 µM in test [1], 1 to 50 µM in test [2] and less than 0.1 µM in test [3].

As for `CC(C)c1c(-c2ccc3nccn3n2)[nH]c2ccc(C3CCNCC3)cc12` [Example 27, 6-(3-isopropyl-5-(piperidin-4-yl)-1H-indol-2-yl)imidazo[1,2-b]pyridazine], the IC50 was less than 0.1 µM in test [1], 1 to 50 µM in test [2] and less than 0.1 µM in test [3].

Turning to `CC(C)c1c(-c2ccc3c(N)n[nH]c3c2)[nH]c2ccc(C3CCNCC3)cc12` [Example 84, 6-(3-isopropyl-5-(piperidin-4-yl)-1H-indol-2-yl)-1H-indazol-3-amine], the half-inhibitory concentration (IC50) in test [1], in test [2] and in test [3] was 0.1 to 1 µM throughout.

Consider `CC(C)c1c(-c2cnc3ncnn3c2)[nH]c2ccc(C3CCN(CC(C)(C)O)CC3)cc12` [Example 773, 1-(4-(2-([1,2,4]triazolo[1,5-a]pyrimidin-6-yl)-3-isopropyl-1H-indol-5-yl)piperidin-1-yl)-2-methylpropan-2-ol], for which the values for the IC50 in test [1], in test [2] and in test [3] were less than 0.1 µM, 1 to 50 µM and 0.1 to 1 µM, respectively.

Turning to `CCCCc1nc(Cl)c(CN2CCC(c3ccc4[nH]c(-c5ccnc6[nH]ncc56)c(C(C)C)c4c3)CC2)[nH]1` [Example 896, 4-(5-(1-((2-butyl-4-chloro-1H-imidazol-5-yl)methyl)piperidin-4-yl)-3-isopropyl-1H-indol-2-yl)-1H-pyrazolo[3,4-b]pyridine], the IC50 is less than 0.1 µM in test [1], 1 to 50 µM in test [2] and 0.1 to 1 µM in test [3].

Regarding `CC(C)c1c(-c2ccc3ncc(C#N)n3c2)[nH]c2ccc(C3CCNCC3)cc12` [Example 119, 6-(3-isopropyl-5-(piperidin-4-yl)-1H-indol-2-yl)imidazo[1,2-a]pyridine-3-carbonitrile], the figures for the half-maximal inhibitory concentration (IC50) in test [1], in test [2] and in test [3] were 0.1 to 1 µM, 1 to 50 µM and 0.1 to 1 µM, respectively.

Take `Cc1c(-c2ccnc3[nH]nc(C)c23)[nH]c2ccc(C3CCNCC3)cc12` [Example 218, 3-methyl-4-(3-methyl-5-(piperidin-4-yl)-1H-indol-2-yl)-1H-pyrazolo[3,4-b]pyridine]: the half-maximal inhibitory concentration (IC50) was less than 0.1 µM in test [1], 0.1 to 1 µM in test [2] and less than 0.1 µM in test [3].

`Cc1cc(-c2[nH]c3ccc(C4CCNCC4)cc3c2C(C)C)cn2c(C(N)=O)cnc12` [Example 261, 6-(3-isopropyl-5-(piperidin-4-yl)-1H-indol-2-yl)-8-methylimidazo[1,2-a]pyridine-3-carboxamide]: the IC50 in test [1] is 0.1 to 1 µM; in test [2] it was 1 to 50 µM; in test [3] it was less than 0.1 µM.

Turning to `COc1cc(-c2[nH]c3ccc(C4CCN(CC(=O)N(C)C)CC4)cc3c2C(C)C)cc2nccn12` [Example 357, 2-(4-(3-isopropyl-2-(5-methoxyimidazo[1,2-a]pyridin-7-yl)-1H-indol-5-yl)piperidin-1-yl)-N,N-dimethylacetamide], the IC50 in test [1], in test [2] and in test [3] was 0.1 to 1 µM each time.

The term IC50 denotes the concentration that gives 50% inhibition. High values mean a need for much substance, low ones inhibition by little substance.
